# Results as given in publication PMC7125202, “Targeting of radioactive platinum-bisphosphonate anticancer drugs to bone of high metabolic activity” (Scientific Reports, 2020).
# Entries after “also recorded” stand apart in the source; their conditions may differ.
# How the values were obtained:
# [1] = In vivo biodistribution of cold Pt-species, Pt quantified by ICP-MS; set-up: species or system C57Bl/6N mice; details: 24 h after i.v. injection
# Experimental: The Pt-BP and Pt(NO3)2(en) complexes were administered intravenously in the tail vein of C57BL/6N mice (n = 5 per each platinum complex). Sterile saline solution (0.9% NaCl) was used to dissolve platinum complexes. The concentration of injected Pt-BP or Pt(NO3)2(en) solutions was 2.5 mM platinum, calculated based on the maximum tolerated dose for cisplatin of 6 mg per kg body weight of the mice[37]. The mice were euthanized with CO2 24 h after injection, after which blood (approximately 600 mg per mouse), liver, spleen, kidneys, heart, lungs, and bones (femur, humerus, tibia, and spine) were harvested. Approximately half of the tissues were prepared for inductively coupled plasma-mass spectrometry (ICP-MS) analysis by digestion in 65% (v/v) nitric acid at 75 °C for approximately three days until the tissues were digested completely. Each tissue was cut into three samples and the samples were weighed prior to digestion in nitric acid. The digested solutions were diluted with up to 6 ml of Milli-Q water to obtain 2% (v/v) nitric acid in order to measure platinum concentrations by ICP-MS (X series I, Thermo Electron Corporation). The detection limit for determining platinum concentration with ICP-MS was 1 ppb. The standard solutions were prepared from 1000 mg·1^−1 platinum ICP standard Certipur (1.70341.0100, Merck) ranging from 1 ppb to 2500 ppb. The measured isotopes for platinum were ^194Pt, ^195Pt, ^196Pt, and ^198Pt. Furthermore, scandium (^45Sc) was added as an internal standard, which was prepared with 1000 mg·1^−1 scandium standard Certipur (1.19513.0100, Merck) to correct for matrix effects and long-term fluctuations of the measurement signal. The platinum concentrations in the various tissues were calculated relative to 1 mg of the specific tissue and represented as ng Pt/mgtissue. Three replicates of Pt-BP and Pt(NO3)2(en) solutions with volumes and platinum concentrations identical to the solutions injected to the mice (200 µl and 2.5 mM platinum, respectively) were also analyzed for their platinum content using ICP-MS as control. The percentage of injected dose (%ID) of Pt-BP and Pt(NO3)2(en) in each mouse tissue 24 h after injection was calculated by dividing the total amount of platinum per tissue through the total amount of platinum detected in the control solutions[52].
# [2] = tested on: zebrafish embryos; test: Phenotypic assessment of drug-treated zebrafish embryos; assay type: in vivo, zebrafish (Danio rerio); details: up to a concentration of 100 µM, until 2 days post treatment
# Experimental: The zebrafish (Danio rerio) strains were kept under standard conditions (28 °C in E3 buffer) until 48 hours post fertilization (hpf) as described previously. All animal experiments were conducted at larval stages before the point of independent feeding and were in agreement with the animal protection law (Tierschutzgesetz).
# 48 hpf wildtype embryos were separated into 6 groups (n = 20 embryos/group), i.e., control (untreated) and embryos treated with 5 µM, 10 µM, 50 µM, and 100 µM Pt-BP as well as 30 µM cisplatin. Both types of compounds were added externally to the medium and the embryos were incubated at 33 °C for the duration of the experiment. The embryos were assessed each day for phenotypic toxicity until 2 days post treatment (48 hpt) and imaged live in an Olympus MVX10 microscope.
compound,measurement,setting,value
"NCCN.NCCN.O.O.O.O=S(=O)([O-])O.[NH3+]CC1(O)P2(=O)[O][Pt][O]P1(=O)[O][Pt][O]2 (stereo not shown) [Pt-BP, dinuclear bis<ethylenediamineplatinum(II) > -2-amino-1-hydroxyethane-1,1-diyl-bisphosphonate complex]",higher affinity for bone compared to Pt(NO3)2(en),[1],4.5 fold
same,Pt uptake in hard tissue,[1]; 2.5 mM Pt,12.18 ± 0.56 %ID/g
same,Pt uptake in kidney,[1]; 2.5 mM Pt,5.70 ± 0.15 %ID/g
same,Pt uptake in liver,[1]; 2.5 mM Pt,2.34 ± 0.17 %ID/g
same,Pt uptake in spleen,[1]; 2.5 mM Pt,1.22 ± 0.12 %ID/g
same,Pt accumulation in hard tissue (bone),"[1]; 2.5 mM Pt, normalized for tissue weight",~ 3 ng Pt/mg tissue
same,visible phenotypic effects,[2],did not show any phenotypic abnormality; also recorded: no visible phenotypic effects
